Tested on: 485176-168-R4-J1-PDC complex spheroid growth
Experiment: Anticancer human tumor 485176-168-R4-J1-PDC patient-derived pancreatic adenocarcinoma cell line growth inhibition [RAS]
Details: for IC50: curve of first compound; for viability, T/C: stronger effect = lower value
Outline: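 Tumour cells grown as complex spheroids with HUVEC endothelial cells and mesenchymal stem cells, treated with RAS pathway inhibitor combinations. Each agent spans half-log steps from near clinical Cmax, or 10 microM where Cmax is unknown.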

[1] = second compound 0.000949 µM, first compound 0.0316 µM
[2] = second compound 0.000949 µM, first compound 0.1 µM
[3] = second compound 0.003 µM, first compound 0.0316 µM
[4] = second compound 0.003 µM, first compound 0.1 µM
[5] = second compound 0.00949 µM, first compound 0.0316 µM
[6] = second compound 0.00949 µM, first compound 0.1 µM
[7] = second compound 0.03 µM, first compound 0.0316 µM
[8] = second compound 0.03 µM, first compound 0.1 µM
[9] = second compound 0.0949 µM, first compound 0.0316 µM
[10] = second compound 0.0949 µM, first compound 0.1 µM
[11] = second compound 0.3 µM, first compound 0.0316 µM
[12] = second compound 0.3 µM, first compound 0.1 µM
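Further: spheroids exposed to compounds for seven days before readout.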
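Wherever viability, T/C is given: luminescence viability expressed relative to DMSO vehicle wells set as 100%.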

For `CC(C)n1nc(-c2ccc3oc(N)nc3c2)c2c(N)ncnc21` + CCn1c(-c2cccnc2C(C)OC)c2c3cc(ccc31)N1CCOC(CC(NC(=O)C(C(C)C)N(C)C(=O)C3(F)CCN(C(=O)C#CC(C)(C)N(C)C)CC3)C(=O)N3CCCC(N3)C(=O)OCC(C)(C)C2)C1, the IC50 (second compound 0.000949 µM) was 0.0222 µM, the IC50 (second compound 0.003 µM) was 0.0286 µM and the IC50 (second compound 0.00949 µM) was 0.0213 µM. The IC50 (second compound 0.03 µM) was 0.0166 µM, the IC50 (second compound 0.0949 µM) was 0.0174 µM and the IC50 (second compound 0.3 µM) was 0.00754 µM. It also gave a viability, T/C (second compound 0.000949 µM, first compound 0.000316 µM) of 104%, a viability, T/C (second compound 0.000949 µM, first compound 0.001 µM) of 81.1% and a viability, T/C (second compound 0.000949 µM, first compound 0.00316 µM) of 93.7%. For the same compound, the viability, T/C (second compound 0.000949 µM, first compound 0.01 µM) was 75.7%, the viability, T/C [1] was 38.5% and the viability, T/C [2] was 17.7%. The viability, T/C (second compound 0.003 µM, first compound 0.000316 µM) was 82.1%, the viability, T/C (second compound 0.003 µM, first compound 0.001 µM) was 79.9% and the viability, T/C (second compound 0.003 µM, first compound 0.00316 µM) was 85.5%. The viability, T/C (second compound 0.003 µM, first compound 0.01 µM) was 72.5%, the viability, T/C [3] was 48.1% and the viability, T/C [4] was 21.4%. For the same compound, the viability, T/C (second compound 0.00949 µM, first compound 0.000316 µM) was 88.1%, the viability, T/C (second compound 0.00949 µM, first compound 0.001 µM) was 89.4% and the viability, T/C (second compound 0.00949 µM, first compound 0.00316 µM) was 84.1%. The viability, T/C (second compound 0.00949 µM, first compound 0.01 µM) was 61.8%, the viability, T/C [5] was 43.9% and the viability, T/C [6] was 16%. For the same compound, the viability, T/C (second compound 0.03 µM, first compound 0.000316 µM) was 85.5%, the viability, T/C (second compound 0.03 µM, first compound 0.001 µM) was 84.5% and the viability, T/C (second compound 0.03 µM, first compound 0.00316 µM) was 85.7%. It also gave a viability, T/C (second compound 0.03 µM, first compound 0.01 µM) of 62.6%, a viability, T/C [7] of 33% and a viability, T/C [8] of 18.6%. For the same compound, the viability, T/C (second compound 0.0949 µM, first compound 0.000316 µM) was 90.5%, the viability, T/C (second compound 0.0949 µM, first compound 0.001 µM) was 86.9% and the viability, T/C (second compound 0.0949 µM, first compound 0.00316 µM) was 69%. For the same compound, the viability, T/C (second compound 0.0949 µM, first compound 0.01 µM) was 65%, the viability, T/C [9] was 36.9% and the viability, T/C [10] was 19.9%. For the same compound, the viability, T/C (second compound 0.3 µM, first compound 0.000316 µM) was 76.9%, the viability, T/C (second compound 0.3 µM, first compound 0.001 µM) was 72.8% and the viability, T/C (second compound 0.3 µM, first compound 0.00316 µM) was 59.3%. For the same compound, the viability, T/C (second compound 0.3 µM, first compound 0.01 µM) was 44.1%, the viability, T/C [11] was 34.1% and the viability, T/C [12] was 14.2%.
`C[C@@H](NC(=O)c1ncnc(N)c1Cl)c1ncc(C(=O)Nc2cc(C(F)(F)F)c(Cl)cn2)s1` + CCn1c(-c2cccnc2C(C)OC)c2c3cc(ccc31)N1CCOC(CC(NC(=O)C(C(C)C)N(C)C(=O)C3(F)CCN(C(=O)C#CC(C)(C)N(C)C)CC3)C(=O)N3CCCC(N3)C(=O)OCC(C)(C)C2)C1 gave an IC50 (second compound 0.000949 µM) greater than 10 µM, an IC50 (second compound 0.003 µM) greater than 10 µM and an IC50 (second compound 0.00949 µM) greater than 10 µM. The IC50 (second compound 0.03 µM) was greater than 10 µM, the IC50 (second compound 0.0949 µM) was greater than 10 µM and the IC50 (second compound 0.3 µM) was 9.48 µM. The viability, T/C [1] was 101%, the viability, T/C [2] was 91.7% and the viability, T/C (second compound 0.000949 µM, first compound 0.316 µM) was 100%. It also gave a viability, T/C (second compound 0.000949 µM, first compound 1 µM) of 85.9%, a viability, T/C (second compound 0.000949 µM, first compound 3.16 µM) of 72.2% and a viability, T/C (second compound 0.000949 µM, first compound 10 µM) of 54.5%. The viability, T/C [3] was 88.6%, the viability, T/C [4] was 89.4% and the viability, T/C (second compound 0.003 µM, first compound 0.316 µM) was 86.2%. For the same compound, the viability, T/C (second compound 0.003 µM, first compound 1 µM) was 70.6%, the viability, T/C (second compound 0.003 µM, first compound 3.16 µM) was 71% and the viability, T/C (second compound 0.003 µM, first compound 10 µM) was 59.6%. For the same compound, the viability, T/C [5] was 87.1%, the viability, T/C [6] was 98.5% and the viability, T/C (second compound 0.00949 µM, first compound 0.316 µM) was 83.7%. For the same compound, the viability, T/C (second compound 0.00949 µM, first compound 1 µM) was 82.4%, the viability, T/C (second compound 0.00949 µM, first compound 3.16 µM) was 91% and the viability, T/C (second compound 0.00949 µM, first compound 10 µM) was 53%. For the same compound, the viability, T/C [7] was 81.3%, the viability, T/C [8] was 85.6% and the viability, T/C (second compound 0.03 µM, first compound 0.316 µM) was 102%. For the same compound, the viability, T/C (second compound 0.03 µM, first compound 1 µM) was 78.3%, the viability, T/C (second compound 0.03 µM, first compound 3.16 µM) was 75.6% and the viability, T/C (second compound 0.03 µM, first compound 10 µM) was 79.5%. For the same compound, the viability, T/C [9] was 89.9%, the viability, T/C [10] was 90.3% and the viability, T/C (second compound 0.0949 µM, first compound 0.316 µM) was 78.5%. For the same compound, the viability, T/C (second compound 0.0949 µM, first compound 1 µM) was 70.7%, the viability, T/C (second compound 0.0949 µM, first compound 3.16 µM) was 74% and the viability, T/C (second compound 0.0949 µM, first compound 10 µM) was 58.3%. The viability, T/C [11] was 75.2%, the viability, T/C [12] was 76.4% and the viability, T/C (second compound 0.3 µM, first compound 0.316 µM) was 65.7%. It also gave a viability, T/C (second compound 0.3 µM, first compound 1 µM) of 72.4%, a viability, T/C (second compound 0.3 µM, first compound 3.16 µM) of 59% and a viability, T/C (second compound 0.3 µM, first compound 10 µM) of 49.7%.
`CC(Nc1ccc2c(c1)OCCn1cc(N3C(=O)OCC3C(F)F)nc1-2)C(N)=O` (stereo unspecified) + C=CC(=O)N1CCN(c2nc(OCC3CCCN3C)nc3c(F)c(-c4nc(N)cc(C)c4C(F)(F)F)c(Cl)cc23)C(C)C1 showed an IC50 (second compound 0.00316 µM) greater than 10 µM, an IC50 (second compound 0.01 µM) greater than 10 µM and an IC50 (second compound 0.0316 µM) greater than 10 µM. It also gave an IC50 (second compound 0.1 µM) greater than 10 µM, an IC50 (second compound 0.316 µM) greater than 10 µM and an IC50 (second compound 1 µM) of 8.19 µM. The viability, T/C (second compound 0.00316 µM, first compound 0.0316 µM) was 91.2%, the viability, T/C (second compound 0.00316 µM, first compound 0.1 µM) was 83.3% and the viability, T/C (second compound 0.00316 µM, first compound 0.316 µM) was 64.8%. For the same compound, the viability, T/C (second compound 0.00316 µM, first compound 1 µM) was 69.9%, the viability, T/C (second compound 0.00316 µM, first compound 3.16 µM) was 58.1% and the viability, T/C (second compound 0.00316 µM, first compound 10 µM) was 52.1%. For the same compound, the viability, T/C (second compound 0.01 µM, first compound 0.0316 µM) was 90.3%, the viability, T/C (second compound 0.01 µM, first compound 0.1 µM) was 98.4% and the viability, T/C (second compound 0.01 µM, first compound 0.316 µM) was 88.9%. For the same compound, the viability, T/C (second compound 0.01 µM, first compound 1 µM) was 73.6%, the viability, T/C (second compound 0.01 µM, first compound 3.16 µM) was 77.9% and the viability, T/C (second compound 0.01 µM, first compound 10 µM) was 59.1%. The viability, T/C (second compound 0.0316 µM, first compound 0.0316 µM) was 102%, the viability, T/C (second compound 0.0316 µM, first compound 0.1 µM) was 78.5% and the viability, T/C (second compound 0.0316 µM, first compound 0.316 µM) was 79%. It also gave a viability, T/C (second compound 0.0316 µM, first compound 1 µM) of 81.8%, a viability, T/C (second compound 0.0316 µM, first compound 3.16 µM) of 63.6% and a viability, T/C (second compound 0.0316 µM, first compound 10 µM) of 62.8%. The viability, T/C (second compound 0.1 µM, first compound 0.0316 µM) was 82.9%, the viability, T/C (second compound 0.1 µM, first compound 0.1 µM) was 99% and the viability, T/C (second compound 0.1 µM, first compound 0.316 µM) was 63%. The viability, T/C (second compound 0.1 µM, first compound 1 µM) was 60.2%, the viability, T/C (second compound 0.1 µM, first compound 3.16 µM) was 61.8% and the viability, T/C (second compound 0.1 µM, first compound 10 µM) was 43.6%. For the same compound, the viability, T/C (second compound 0.316 µM, first compound 0.0316 µM) was 108%, the viability, T/C (second compound 0.316 µM, first compound 0.1 µM) was 83% and the viability, T/C (second compound 0.316 µM, first compound 0.316 µM) was 81.5%. The viability, T/C (second compound 0.316 µM, first compound 1 µM) was 69.8%, the viability, T/C (second compound 0.316 µM, first compound 3.16 µM) was 75.6% and the viability, T/C (second compound 0.316 µM, first compound 10 µM) was 57.3%. The viability, T/C (second compound 1 µM, first compound 0.0316 µM) was 85.9%, the viability, T/C (second compound 1 µM, first compound 0.1 µM) was 85.7% and the viability, T/C (second compound 1 µM, first compound 0.316 µM) was 69.5%. For the same compound, the viability, T/C (second compound 1 µM, first compound 1 µM) was 76.3%, the viability, T/C (second compound 1 µM, first compound 3.16 µM) was 55.7% and the viability, T/C (second compound 1 µM, first compound 10 µM) was 48.8%.

Source: PubChem BioAssay AID2060906 (Molecular Pharmacology Branch, DTP, NCI, 2025)
